Test results reported in patent US4622422A, “Cyclohexanealkanoic acids” (Merrell Dow Pharmaceuticals Inc., priority 1985, dated 1986).

What was measured:
[1] = target: T1, leukotriene D4 (longitudinal muscle of guinea pig ileum) (Cavia porcellus, UniProt Q2NNR5); experiment: Longitudinal Muscle of Guinea Pig Ileum; antagonism of LTD4-induced contraction; assay type: cell-based; conditions: 1 μM Indomethacin, 15 min with test agent, then cumulative LTD4, Arunlakshana and Schild, read-out: G.P. ILEUM pA2 (LTD4) (converted)
T1 construct: The longitudinal muscle was then carefully dissected from the circular muscle of the ileum; from tissue; host or cells: guinea pig ileum, longitudinal muscle segments
T1 sequence (Q2NNR5 1-340): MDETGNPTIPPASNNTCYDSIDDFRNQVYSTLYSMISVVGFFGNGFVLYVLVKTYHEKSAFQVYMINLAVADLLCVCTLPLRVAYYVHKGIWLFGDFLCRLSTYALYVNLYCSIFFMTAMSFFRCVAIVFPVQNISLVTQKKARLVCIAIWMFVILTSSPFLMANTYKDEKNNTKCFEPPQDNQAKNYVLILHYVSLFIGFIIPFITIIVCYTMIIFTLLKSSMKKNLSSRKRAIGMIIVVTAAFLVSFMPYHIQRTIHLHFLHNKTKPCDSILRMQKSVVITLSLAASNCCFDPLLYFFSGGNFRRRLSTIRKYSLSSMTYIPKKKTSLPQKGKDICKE
Description: Male, Hartley-Duncan, guinea pigs were sacrificed by cervical dislocation. The terminal portion of the ileum was removed, rinsed, and placed in Burn's modified Tyrode's solution. The longitudinal muscle was then carefully dissected from the circular muscle of the ileum. The longitudinal muscle was cut into 1-2 cm. segments which were placed in a tissue bath containing oxygenated Burn's modified Tyrode's solution warmed to 37° C. A tension of 1.0 gram was then placed on each segment of muscle. After equilibration for 1 hour, 1 μM Indomethacin was added to each bath. After 5 minutes, each tissue segment was then exposed to a concentration of 60 nM leukotriene D4. This response was then considered to be the initial maximal contraction that each segment will produce. After washing the tissue several times, over a 1 hour period, 1 μM Indomethacin was again added to each bath. After a 5 minute period the test agent or vehicle was added to the bath. After 15 minutes, a concentration-response curve was generated using cumulatively increasing concentrations of leukotriene D4. The concentration-response was then compared to the initial maximum contraction. A test compound was considered active, if at concentrations up to 100 μM, it produces a significant shift to the right of the concentration-response relationship to leukotriene D4. The antagonist activity was quantitated in terms of a pA2 value calculated according to the method described by Arunlakshana and Schild, (Brit. J. Pharmac. Chemotherap. 14; 48, 1959).

leukotriene D4 = experiment: In vivo leukotriene D4 antagonist activity in anesthetized guinea pigs (modified Konzett-Rossler preparation); set-up: species or system guinea pig; conditions: 10-20 min before 1 μg/ml LTD4 aerosol (1 min), inflation pressure response
Description: Compounds of the present invention were also tested for in vivo leukotriene D4 antagonist activity in anesthetized guinea pigs using a modified Konzett-Rossler preparation. Specifically, the guinea pigs were anesthetized with sodium pentobarbital and surgically prepared for artificial ventilation by a constant volume respirator. The inflation pressure produced by the respirator was measured for each inflation of the guinea pigs' lungs. Increases in inflation pressure above baseline are indicative of bronchoconstriction. After establishing a baseline inflation pressure, the guinea pig was exposed for 1 minute to an aerosol generated ultrasonically from a 1 μg/ml solution of leukotriene D4. After the inflation pressure returned to baseline, the guinea pig was exposed to an aerosol generated from a solution of a test compound. Ten to twenty minutes later, the guinea pig was re-exposed to a 1 minute aerosol generated from 1 μg/ml leukotriene D4. This response was then compared to the initial response and the % inhibition of the response was determined.

[2] = target: T2, 3H-LTD4 specific receptor (guinea pig lung membranes) (Cavia porcellus, UniProt Q2NNR5); experiment: 3H-LTD4 - Specific Receptor Binding in Guinea Pig Lung Membranes; conditions: inhibition of 3H-LTD4 specific binding; pH 7.6, 37° C., 20-40 min; read-out: G.P. LUNG SPECIFIC BINDING IC50
T2 construct: from tissue; host or cells: guinea pig lung membranes (30,000 g pellet)
T2 sequence (Q2NNR5 1-340): T1 sequence (Q2NNR5 1-340)
Description: Male guinea pigs were sacrificed and the lungs were removed and placed in ice cold 50 mM Tris-HCl buffer, pH 7.4. The lungs were then homogenized with a Polytron homogenizer and the homogenate was centrifuged at 1000 g for 10 minutes at 4° C. The supernatant was then centrifuged at 30,000 g for 15 minutes at 4° C. to obtain the membrane pellet. This pellet was resuspended in 50 mM Tris-HCl to provide the working suspension of lung membranes. Binding assays were then carried out in 50 mM Tris-HCl at pH 7.6 and 37° C. using incubation periods of 20-40 min. Separation of bound ^3 H-LTD4 from free ^3 H-LTD4 were performed by rapid vacuum filtration through Whatman GF/B glass fiber filters using ice cold Tris-HCl buffer and three 4 ml washes. Filtration and washing were completed in less than 8 seconds. The radioactivity on the filters was then measured. Specific binding of ^3 H-LTD4 was defined as the binding of ^3 H-LTD4 in the absence of unlabelled LTD4 minus the binding of ^3 H-LTD4 in the presence of 2×10^-7 M unlabelled LTD4. Specific binding of ^3 H-LTD4 was 60-80% of total binding. […] In these tests increasing concentrations of the agent are used to block the ^3 H-LTD4 specific binding. The concentration that reduces the specific binding of ^3 H-LTD4 by 50% is termed the IC50.

SMILES | Kb [1] [µM] | PERCENT INHIBITION (leukotriene D4; 5 mg/ml solution aerosolized) [%] | PERCENT INHIBITION (leukotriene D4; 10 mg/ml solution aerosolized) [%] | IC50 [2] [µM]
CCCCCCCCCCCCC/C=C1\CC[C@@H](CC(=O)O)[C@H](O)[C@H]1SCC(=O)O (relative stereo) [Example 15A, (1α,2β,3α,4E)-3-[(carboxymethyl)thio]-2-hydroxy-4-tetradecylidenecyclohexaneacetic acid] | 3.39 | 25.3 | 64.2 | 3
CCCCCCCCCCCCC/C=C1\CC[C@@H](CC(=O)O)[C@H](O)[C@H]1SCCC(=O)O (relative stereo) [Example 15B, (1α,2β,3α,4E)-3-[(2-Carboxyethyl)thio]-2-hydroxy-4-tetradecylidenecyclohexaneacetic acid] | 3.09 | 44.3 | – | 0.4
CCCCCCCCCCCCC/C=C1\CC[C@@H](CCC(=O)O)[C@@H](O)[C@@H]1SCC(=O)O (relative stereo) [Example 15C, (1α,2α,3β,4E)-3-[(Carboxymethyl)thio]-2-hydroxy-4-tetradecylidenecyclohexanepropionic acid] | 1.62 | – | – | –
CCCCCCCCCCCCC/C=C1\CC[C@@H](CCC(=O)O)[C@@H](O)[C@@H]1SCCC(=O)O (relative stereo) [Example 15D, (1α,2α,3β,4E)-3-[(2-Carboxyethyl)thio]-2-hydroxy-4-tetradecylidenecyclohexanepropionic acid] | 2 | – | – | –
CCCCCCCCCCCCC/C=C1\CC[C@@H](CCC(=O)O)[C@H](O)[C@H]1SCC(=O)O (relative stereo) [Example 15E, (1α,2β,3α,4E)-3-[(Carboxymethyl)thio]-2-hydroxy-4-tetradecylidenecyclohexanepropionic acid] | 2.24 | – | – | –
CCCCCCCCCCCCC/C=C1\CC[C@@H](CC(=O)O)[C@@H](O)[C@H]1SCC(=O)O (relative stereo) [Example 18, (1α,2α,3α,4E)-3-[(carboxymethyl)thio]-2-hydroxy-4-tetradecylidenecyclohexaneacetic acid] | 30.9 | – | – | –
